In patent US12479818B2, “Treatment of fibrosis with IRE1 small molecule inhibitors” (Cornell University, priority 2019, dated 2025):

Target: IRE1a (Homo sapiens, UniProt O75460)
Test: IRE1a Endoribonuclease Nanoluciferase Assay (XBP1 luciferase reporter in 293T cells)
Format: cell-based
Set-up: endogenous in cells; host or cells: 293T
Settings: XBP1 nanoluciferase reporter in 293T cells, ER stressor; tested as the salt named
Method: Compounds disclosed herein were assessed for disruption of IRE1 signaling using a IRE1a Endoribonuclease Nanoluciferase Assay. […] About 24 hours later, the cells were transfected with Effectene. In a 15 mL tube, the following was added: 2 ug XBP1 luciferase reporter plasmid (PGK-Luc2-P2A-XBP1u-Nanoluciferase-PEST); 300 ul EC buffer; and 16 ul Enhancer, followed by incubation at room temp for 5 minutes. […] 2.6 mL cDMEM media was added. Old media was aspirated from the cells, followed by addition of 7 mL fresh media. Full transfection mixture was added dropwise to cells. Cells were incubated for 6 hours, followed by trypsinization, centrifugation and resuspension in 11 mL fresh cDMEM media. 100 μL of cells were plated per a well in a 96 well plate. A day later, ER stressors of choice +/− inhibitors were added. To harvest, media was aspirated from cells completely, then 50 uL 1× passive lysis buffer (Promega: E1941) was added per well and put on shaker (300 rpm) for 30 minutes at room temperature. […] 15 uL OneGlo (nanoluciferase kit, Promega N1630) was added. Plates were spun down, placed on shaker (300 rpm) for 10 minutes. Plates were read on luminometer, 1000 ms integration time per well. 15 uL Stop and Glo (nanoluciferase kit) was added. Plates were spun down, placed on shaker (300 rpm) for 10 minutes. Plates were read on luminometer, 1000 ms second integration time per well.

Sequence of IRE1a (O75460 19-977): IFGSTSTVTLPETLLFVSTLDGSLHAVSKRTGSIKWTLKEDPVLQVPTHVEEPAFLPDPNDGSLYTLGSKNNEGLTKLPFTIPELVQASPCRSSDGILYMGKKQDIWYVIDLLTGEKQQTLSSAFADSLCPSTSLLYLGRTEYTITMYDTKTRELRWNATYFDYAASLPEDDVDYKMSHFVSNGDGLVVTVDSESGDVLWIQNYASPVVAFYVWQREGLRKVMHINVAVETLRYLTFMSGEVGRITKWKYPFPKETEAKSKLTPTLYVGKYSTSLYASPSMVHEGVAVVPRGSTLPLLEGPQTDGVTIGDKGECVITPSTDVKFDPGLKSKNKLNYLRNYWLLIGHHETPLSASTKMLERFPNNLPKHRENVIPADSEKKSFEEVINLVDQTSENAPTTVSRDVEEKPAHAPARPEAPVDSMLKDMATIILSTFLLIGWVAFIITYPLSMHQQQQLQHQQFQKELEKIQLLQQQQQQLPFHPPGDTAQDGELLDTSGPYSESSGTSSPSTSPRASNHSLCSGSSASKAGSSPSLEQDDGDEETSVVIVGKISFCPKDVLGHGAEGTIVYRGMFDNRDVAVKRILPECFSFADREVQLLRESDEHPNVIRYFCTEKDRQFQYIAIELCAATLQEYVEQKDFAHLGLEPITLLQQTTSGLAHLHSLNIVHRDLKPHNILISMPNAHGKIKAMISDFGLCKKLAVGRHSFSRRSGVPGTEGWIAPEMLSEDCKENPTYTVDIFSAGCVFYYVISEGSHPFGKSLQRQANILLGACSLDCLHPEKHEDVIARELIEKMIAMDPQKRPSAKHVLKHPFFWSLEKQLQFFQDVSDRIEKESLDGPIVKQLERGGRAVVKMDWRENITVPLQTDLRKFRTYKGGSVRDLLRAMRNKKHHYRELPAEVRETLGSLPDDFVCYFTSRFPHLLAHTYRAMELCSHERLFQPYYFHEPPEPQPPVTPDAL

SMILES	EC50 [µM]
Cc1nc(NS(=O)(=O)c2ccccc2Cl)ncc1-c1ccc2nc(N[C@H]3CC[C@H](N)CC3)ncc2c1 [Compound 68, N-(5-(2-(((1r,4r)-4-aminocyclohexyl)amino)quinazolin-6-yl)-4-methylpyrimidin-2-yl)-2-chlorobenzene-sulfonamide]	0.05 to 0.1
CCc1cc(-c2ccc(NS(=O)(=O)c3ccccc3Cl)c(F)c2)cc2cnc(N[C@H]3CC[C@H](N(C)C)CC3)nc12 [Compound 69]	< 0.005
CCc1cc(-c2ccc(NS(=O)(=O)c3ccccc3Cl)c(F)c2C)cc2cnc(N[C@H]3CC[C@H](N)CC3)nc12 [Compound 71, N-(4-(2-(((1r,4r)-4-aminocyclohexyl)amino)-8-ethylquinazolin-6-yl)-2-flouro-3-methylphenyl)-2-chlorobenzene-sulfonamide]	< 0.005
CCc1cc(-c2ccc(NS(=O)(=O)c3ccccc3Cl)c(F)c2)cc2cnc(N[C@@H]3CCC[C@H](N)C3)nc12 [Compound 72, N-(4-(2-(((1R,3S)-3-aminocyclohexyl)amino)-8-ethylquinazolin-6-yl)-2-fluorophenyl)-2-chlorobenzene-sulfonamide]	0.1 to 10
CCc1cc(-c2ccc(NS(=O)(=O)c3ccccc3Cl)c(F)c2)cc2cnc(N[C@@H]3CC[C@@H](N)[C@H](C)C3)nc12 [Compound 74]	< 0.005
N[C@H]1CCC[C@@H](Nc2ncc3cc(-c4ccc(NS(=O)(=O)c5ccccc5Cl)c(F)c4)ccc3n2)C1 [Compound 75]	0.1 to 10
O=S(=O)(Nc1ccc(-c2ccc3nc(N[C@H]4CCCNC4)ncc3c2)cc1F)c1ccccc1Cl [Compound 76, (S)-2-chloro-N-(2-fluoro-4-(2-(piperidin-3-ylamino)quinazolin-6-yl)phenyl) benzene-sulfonamide]	0.005 to 0.05
N[C@@H]1CC[C@@H](Nc2ncc3cc(-c4ccc(NS(=O)(=O)c5ccccc5Cl)c(F)c4)ccc3n2)C1 [Compound 77, N-(4-(2-(((1R,3R)-3-aminocyclopentyl)amino)quinazolin-6-yl)-2-fluorophenyl)-2-chlorobenzene-sulfonamide]	0.005 to 0.05
CCc1cc(-c2ccc(NS(=O)(=O)c3ccccc3Cl)c(F)c2)cc2cnc(N[C@@H]3CC[C@@H](N)C3)nc12 [Compound 78]	< 0.005
CCc1cc(-c2ccc(NS(=O)(=O)c3ccccc3Cl)c(F)c2)cc2cnc(N[C@@H]3CC[C@H](N)C3)nc12 [Compound 79, N-(4-(2-(((1R,3S)-3-aminocyclopentyl)amino)-8-ethylquinazolin-6-yl)-2-fluorophenyl)-2-chlorobenzene-sulfonamide]	0.005 to 0.05
NC12CCC(Nc3ncc4cc(-c5ccc(NS(=O)(=O)c6ccccc6Cl)c(F)c5)ccc4n3)(CC1)CC2 [Compound 81, N-(4-(2-((4-aminobicyclo[2.2. 2]octan-1-yl)amino)quinazolin-6-yl)-2-fluorophenyl)-2-chlorobenzene-sulfonamide]	< 0.005
CCc1cc(-c2ccc(NS(=O)(=O)c3ccccc3Cl)c(F)c2)cc2cnc(N[C@H]3CC4C[C@H](N)CC4C3)nc12 (stereo partly drawn) [Compound 82]	0.005 to 0.05
CCc1cc(-c2ccc(NS(=O)(=O)c3ccccc3Cl)c(F)c2)cc2cnc(N[C@H]3CC4C[C@H](N)CC4C3)nc12 (stereo partly drawn) [Compound 83, N-(4-(2-(((2r,5r)-5-aminoocta-hydropentalen-2-yl)amino)-8-ethylquinazolin-6-yl)-2-fluorophenyl)-2-chlorobenzene-sulfonamide]	0.05 to 0.1
CCc1cc(-c2ccc(NS(=O)(=O)c3ccccc3Cl)c(F)c2)cc2cnc(N[C@H]3CC4C[C@@H](N)CC4C3)nc12 (stereo partly drawn) [Compound 84, N-(4-(2-(((2s,5s)-5-aminoocta-hydropentalen-2-yl)amino)-8-ethylquinazolin-6-yl)-2-fluorophenyl)-2-chlorobenzene-sulfonamide]	0.005 to 0.05
N[C@H]1CC2C[C@@H](Nc3ncc4cc(-c5ccc(NS(=O)(=O)c6ccccc6Cl)c(F)c5)ccc4n3)CC2C1 (stereo partly drawn) [Compound 85, N-(4-(2-(((2s,5s)-5-aminoocta-hydropentalen-2-yl)amino)quinazolin-6-yl)-2-fluorophenyl)-2-chlorobenzene-sulfonamide]	0.1 to 10
NC12CCC(Nc3ncc4cc(-c5ccc(NS(=O)(=O)c6ccccc6Cl)c(F)c5)ccc4n3)(CC1)C2 [Compound 86, N-(4-(2-((4-aminobicyclo[2.2. 1]heptan-1-yl)amino)quinazolin-6-yl)-2-fluorophenyl)-2-chlorobenzene-sulfonamide]	0.05 to 0.1
CCc1cc(-c2ccc(NS(=O)(=O)c3ccccc3Cl)c(F)c2)cc2cnc(NC34CCC(N)(CC3)CC4)nc12 [Compound 87, N-(4-(2-((4-aminobicyclo[2.2. 2]octan-1-yl)-amino)-8-ethylquinazolin-6-yl)-2-fluorophenyl)-2-chlorobenzene-sulfonamide]	< 0.005
CCc1cc(-c2ccc(NS(=O)(=O)c3ccccc3Cl)c(F)c2)cc2cnc(N[C@H]3CC[C@H](N4CCCC4)CC3)nc12 [Compound 88, 2-chloro-N-(4-(8-ethyl-2-(((lr,4r)-4-(pyrrolidin-1-yl)cyclohexyl)amino)quinazolin-6-yl)-2-fluorophenyl) benzene-sulfonamide]	< 0.005
N[C@H]1CC[C@H](Nc2ncc3cc(-c4nnc(NS(=O)(=O)c5ccccc5Cl)s4)ccc3n2)CC1 [Compound 89, N-(5-(2-(((lr,4r)-4-aminocyclohexyl)amino)quinazolin-6-yl)-1,3,4-thiadiazol-2-yl)-2-chlorobenzene-sulfonamide]	0.1 to 10
Cc1cc2nc(N[C@H]3CC[C@H](N)CC3)ncc2cc1-c1ccc(NS(=O)(=O)c2ccccc2Cl)c(F)c1 [Compound 90, N-(4-(2-(((1r,4r)-4-aminocyclohexyl)amino)-7-methylquinazolin-6-yl)-2-fluorophenyl)-2-chlorobenzene-sulfonamide]	0.005 to 0.05
CCc1cc(-c2cnc(NS(=O)(=O)c3ccccc3Cl)cc2OC)cc2cnc(N[C@H]3CC[C@H](N)CC3)nc12 [Compound 92, N-(5-(2-(((1r,4r)-4-aminocyclohexyl)amino)-8-ethylquinazolin-6-yl)-4-methoxypyridin-2-yl)-2-chlorobenzene-sulfonamide]	0.1 to 10
CCc1cc(-c2cnc(NS(=O)(=O)c3ccccc3Cl)c(F)c2)cc2cnc(N[C@H]3CC[C@H](N(C)C)CC3)nc12 [Compound 95, 2-chloro-N-(5-(2-(((1r,4r)-4-(dimethylamino)cyclohexyl)amino)-8-ethylquinazolin-6-yl)-3-fluoropyridin-2-yl)benzenesulfonamide]	< 0.005
CCc1cc(-c2cc(F)c(NS(=O)(=O)c3ccccc3Cl)nc2C)cc2cnc(N[C@H]3CC[C@H](N(C)C)CC3)nc12 [Compound 97, 2-chloro-N-(5-(2-(((1r,4r)-4-(dimethylamino)cyclohexyl)amino)-8-ethylquinazolin-6-yl)-3-fluoro-6-methylpyridin-2-yl)benzenesulfonamide]	< 0.005
CCc1cc(-c2ncc(NS(=O)(=O)c3ccccc3Cl)nc2OC)cc2cnc(N[C@H]3CC[C@H](N)CC3)nc12 [Compound 98, N-(5-(2-(((1r,4)-4-aminocyclohexyl)amino)-8-ethylquinazolin-6-yl)-6-methoxypyrazin-2-yl)-2-chlorobenzenesulfonamide]	< 0.005
CCc1cc(-c2ccc(NS(=O)(=O)c3ccccc3Cl)nc2OC)cc2cnc(N[C@H]3CC[C@H](N(C)C)CC3)nc12 [Compound 99, 2-chloro-N-(5-(2-(((1r,4r)-4-(dimethylamino)cyclohexyl)amino)-8-ethylquinazolin-6-yl)-6-methoxypyridin-2-yl)benzenesulfonamide]	< 0.005
COc1nc(NS(=O)(=O)c2ccccc2Cl)ccc1-c1cc2cnc(N[C@H]3CC[C@H](N(C)C)CC3)nc2cc1C [Compound 108, 2-chloro-N-(5-(2-(((1r,4r)-4-(dimethylamino)cyclohexyl)amino)-7-methylquinazolin-6-yl)-6-methoxypyridin-2-yl)benzenesulfonamide]	< 0.005
CCc1cc(-c2ccc(NS(=O)(=O)c3ccccc3Cl)nc2OC)cc2cnc(N[C@H]3CC[C@H](NC)CC3)nc12 [Compound 116, 2-chloro-N-(5-(8-ethyl-2-(((1r,4r)-4-(methylamino)cyclohexyl)amino)quinazolin-6-yl)-6-methoxypyridin-2-yl)benzenesulfonamide]	< 0.005
CCc1nc(NS(=O)(=O)c2ccccc2Cl)ccc1-c1cc(CC)c2nc(N[C@H]3CC[C@H](N(C)C)CC3)ncc2c1 [Compound 117, 2-chloro-N-(5-(2-(((1r,4r)-4-(dimethylamino)cyclohexyl)amino)-8-ethylquinazolin-6-yl)-6-ethylpyridin-2-yl)benzenesulfonamide]	< 0.005
CCc1cc(-c2ccc(NS(=O)(=O)c3ccccc3C)nc2OC)cc2cnc(NC3CCC(NC)CC3)nc12 (stereo not drawn) [Compound 118, N-(5-(8-ethyl-2-(((1r,4r)-4-(methylamino)cyclohexyl)amino)quinazolin-6-yl)-6-methoxypyridin-2-yl)-2-methylbenzenesulfonamide]	< 0.005
CCc1cc(-c2ccc(NS(=O)(=O)c3ccccc3C)nc2OC)cc2cnc(N[C@H]3CC[C@H](N(C)C)CC3)nc12 [Compound 119, N-(5-(2-(((1r,4r)-4-(dimethylamino)cyclohexyl)amino)-8-ethylquinazolin-6-yl)-6-methoxypyridin-2-yl)-2-methylbenzenesulfonamide]	< 0.005
